Results as given in PubChem BioAssay (NCI).
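Test compounds were applied to cells in 96-well plates for 48 hours at 5 doses. The concentration for full growth arrest is given as TGI.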 Where a SMILES comes first, the peptide text is derived from it. The star is where a group is joined. Boc = CC(C)(C)OC(=O)*

Experiments:
Test in all cases: NCI anticancer screen, dose series, 48 h
[1] = test system: ACHN renal
[2] = test system: BT-549 breast
[3] = test system: CAKI-1 renal
[4] = test system: HOP-62 NSCLC
[5] = test system: HOP-92 NSCLC
[6] = test system: HT29 colon
[7] = test system: MDA-MB-231 breast
[8] = test system: MDA-N
[9] = test system: MOLT-4 leukemia
[10] = test system: NCI-H23 lung
[11] = test system: OVCAR-3 ovarian
[12] = test system: OVCAR-5 ovarian
[13] = test system: PC-3 prostate
[14] = test system: SF-539 CNS
[15] = test system: SK-MEL-2 melanoma
[16] = test system: SNB-75 CNS
[17] = test system: UACC-257 melanoma
[18] = test system: RPMI-8226 leukemia
[19] = test system: U251 CNS
[20] = test system: HS 578T breast

Compound	TGI [1]	TGI [2]	TGI [3]	TGI [4]	TGI [5]	TGI [6]	TGI [7]	TGI [8]	TGI [9]	TGI [10]	TGI [11]	TGI [12]	TGI [13]	TGI [14]	TGI [15]	TGI [16]	TGI [17]	TGI [18]	TGI [19]	TGI [20]
CC(=O)C1C(=O)C(=O)N(c2cccc(C)c2C)C1=O (centres undefined)	> 100 µM	> 100 µM	> 100 µM	> 100 µM	> 100 µM	> 100 µM	> 100 µM	> 100 µM	> 100 µM	> 100 µM	> 100 µM	> 100 µM	> 100 µM	> 100 µM	> 100 µM	> 100 µM	> 100 µM			
CC(NC(=O)C(NC(=O)OC(C)(C)C)C(C)C)C(=O)N1CCCC1C(=O)NCC(=O)NC(C(=O)NCC(=O)O)C(C)C (centres undefined) (Boc-VAPGVG-OH; configuration not given here)	> 100 µM		> 100 µM	> 100 µM	> 100 µM	> 100 µM	> 100 µM	> 100 µM	> 100 µM	> 100 µM	> 100 µM	> 100 µM	> 100 µM	> 100 µM	> 100 µM	> 100 µM	> 100 µM	> 100 µM	> 100 µM	
CC1CN=C(Nc2ccc(F)cc2F)S1 (centres undefined)	> 100 µM		> 100 µM	> 100 µM	> 100 µM		> 100 µM	> 100 µM	> 100 µM	> 100 µM	> 100 µM	> 100 µM	> 100 µM	> 100 µM	> 100 µM	> 100 µM	> 100 µM	> 100 µM	> 100 µM	> 100 µM
Cc1ccc(S(=O)(=O)N2CC3OC(C)(C)OC3C2CO)cc1 (centres undefined)	> 100 µM		> 100 µM	> 100 µM	> 100 µM	> 100 µM	> 100 µM	> 100 µM	> 100 µM		> 100 µM	> 100 µM	> 100 µM	> 100 µM	> 100 µM	> 100 µM	> 100 µM	> 100 µM	> 100 µM	> 100 µM
CCOC(=O)c1c(N)nn2c1cc1cccccc12	> 100 µM	65.2 µM	> 100 µM	> 100 µM	95.8 µM	> 100 µM	> 100 µM	> 100 µM	> 100 µM	69 µM	> 100 µM	> 100 µM	53.7 µM	> 100 µM	45.1 µM		71.5 µM	45.7 µM	69.6 µM	82.8 µM
O=C(Nc1cc(C(=O)Nc2cccc(S(=O)(=O)O)c2)cc(C(=O)Nc2cccc(S(=O)(=O)O)c2)c1)c1cccc(C(=O)Nc2cc(C(=O)Nc3cccc(S(=O)(=O)O)c3)cc(C(=O)Nc3cccc(S(=O)(=O)O)c3)c2)c1	> 100 µM	> 100 µM	> 100 µM	> 100 µM		> 100 µM	> 100 µM	> 100 µM	> 100 µM	> 100 µM	> 100 µM	> 100 µM	> 100 µM	> 100 µM	> 100 µM	> 100 µM	> 100 µM	> 100 µM	> 100 µM	> 100 µM
COC(=O)/C=C/c1ccc2c(c1)CCC2	> 100 µM		> 100 µM	> 100 µM	46.7 µM	> 100 µM	> 100 µM	> 100 µM	> 100 µM	> 100 µM	> 100 µM	> 100 µM	> 100 µM	> 100 µM	> 100 µM	91.4 µM	> 100 µM	> 100 µM	> 100 µM	> 100 µM
O=c1cc(-c2ccccc2)[nH]c2cc(F)c(F)cc12	> 35.5 µM		> 100 µM	> 100 µM	> 100 µM	> 46.4 µM	> 77.2 µM	1.17 µM	> 100 µM	22.9 µM	43.7 µM	> 100 µM	> 100 µM	2.33 µM	> 75.1 µM	90 µM	> 100 µM	> 100 µM	> 58.6 µM	> 28.9 µM
CC(=O)Oc1ccc2c(c1)Oc1cc(C(C)=O)ccc1C21OC(=O)c2ccccc21 (centres undefined)	> 100 µM	> 100 µM	> 100 µM	> 100 µM	> 100 µM	> 100 µM	> 100 µM	> 100 µM	> 100 µM	> 100 µM	> 100 µM	> 100 µM	> 100 µM		> 100 µM	> 100 µM	> 100 µM	> 100 µM	> 100 µM	
Cc1ccc([N+](=O)[O-])c2c(NCCNC(=O)Cn3ccnc3[N+](=O)[O-])ccnc12	> 100 µM		> 100 µM	48.7 µM	78.1 µM	> 100 µM	> 100 µM	> 100 µM	> 100 µM	> 100 µM	52.6 µM	> 100 µM	> 100 µM	> 100 µM	> 100 µM	> 100 µM	87.7 µM	> 100 µM	> 100 µM	> 100 µM
CCOC(=O)Cc1nnc2c(-c3ccccc3)nc3ccccc3n12	48.3 µM	> 100 µM		27.6 µM	> 100 µM	> 100 µM	45.3 µM	> 100 µM	> 100 µM	> 100 µM	51.9 µM	> 100 µM	> 100 µM	> 100 µM	95.2 µM		> 100 µM	> 100 µM	48.4 µM	
CCOC(=O)c1ccc(Nc2nc3cc(C(F)(F)F)ccc3nc2-c2ccccc2)cc1	47.5 µM	> 100 µM	> 100 µM	61.7 µM		> 10 µM	> 100 µM	> 100 µM	> 10 µM	> 100 µM	> 100 µM	> 100 µM	69.2 µM	> 100 µM		39.4 µM	> 100 µM	> 100 µM	49.5 µM	84.2 µM
